Where two headings read alike, the source gives them in different places.
Experiments:
HIV‐1 [1] = test system: HIV‐1; parameters: method as in ref 17 = [17]; 17 Molina JM , Yazdanpanah Y , Afani Saud A , et al. MK‐8591 at doses of 0.25 to 2.25 mg QD, in combination with doravirine establishes and maintains viral suppression through 48 weeks in treatment‐na; conditions: islatravir in combination with doravirine, treatment-naive adults with HIV-1, phase 2b; cited from earlier work
CYP2C8 = test system: CYP2C8; parameters: method as in PMID 34452431; conditions: at concentrations up to 100 μM; cited from earlier work
CYP2C19 = test system: CYP2C19; parameters: method as in PMID 34452431; conditions: at concentrations up to 100 μM; cited from earlier work
[2] = Plasma pharmacokinetics in phase 1, open-label, fixed-sequence, 2-period drug interaction trial (MK-8591-005); assay type: in vivo, human
Protocol: (§1) This was a phase 1, open‐label, fixed‐sequence, 2‐period trial in adults without HIV (protocol MK‐8591‐005). In period 1, participants received a single oral dose of 20 mg islatravir. In period 2, participants received multiple oral doses of 50 mg dolutegravir and 300 mg TDF once daily for 11 consecutive days (days 1‐11), with a single oral dose of 20 mg islatravir coadministered on day 8. There was a washout period of ≥7 days between islatravir dosing in period 1 and the first dose of dolutegravir and TDF in period 2 (Figure 1).
Blood samples for islatravir plasma analysis were collected before dosing and at selected time points over 96 hours following administration of islatravir on day 1 of period 1 and day 8 of period 2. In period 2, samples taken at 24, 48, and 72 hours for islatravir plasma analysis were collected before dose administration of dolutegravir and TDF. Blood samples for plasma analysis of dolutegravir and tenofovir were collected before dosing on days 1, 7, and 8 of period 2 and at selected time points over 24 hours after dosing on days 7 and 8 of period 2. The 24 hour samples for dolutegravir and tenofovir analysis for days 7 and 8 were collected before dosing of dolutegravir and TDF.
Plasma concentrations of islatravir, dolutegravir, and tenofovir were determined by inVentiv Health Clinique (Québec City, Québec, Canada) using validated high‐performance liquid chromatography coupled to tandem mass spectrometry methods.
Islatravir (m/z 294.000/154.000) was extracted using an automated protein precipitation method using [^13C,^15N3]‐ISL as internal standard (m/z 297.800/158.000). The extracted samples were assessed on a system equipped with a X Select HSS T3 C18, 50×2.1 mm, 2.5 μm column with water/acetonitrile with formic acid mobile phase. […] The lower limit of quantitation for islatravir was 0.10 ng/mL, with an analytical range of 0.10 to 100.00 ng/mL.
Dolutegravir (m/z 420.200/277.200) was extracted using an automated protein precipitation method using [C^13‐d5]‐dolutegravir as the internal standard (m/z 426.300/277.300). The extracted samples were assessed on a system equipped with an ACE 3 C18, 30 × 4.6 mm, 3 μm column (Avantor, Radnor, Pennsylvania) with water/methanol with ammonium formate and formic acid mobile phase. […] The lower limit of quantitation for dolutegravir was 10.00 ng/mL, with an analytical range of 10.00 to 10 000.00 ng/mL.
Tenofovir (m/z 288.200/176.200) was extracted using an automated solid phase extraction using tenofovir‐d6 as internal standard (m/z 294.100/182.300). The extracted samples were assessed on a system equipped with an Atlantis dC18, 75 × 4.6 mm, 3 μm column (Waters Corp., Milford, Massachusetts) with water/acetonitrile with ammonium formate and formic acid mobile phase. […] The lower limit of quantitation for tenofovir was 0.50 ng/mL, with an analytical range of 0.50 to 500.00 ng/mL.
Plasma islatravir, dolutegravir, and tenofovir pharmacokinetics were summarized descriptively. Pharmacokinetic parameter values were calculated using the software Phoenix WinNonlin version 6.3 (Certara, Princeton, New Jersey). Cmax, C24, and tmax values were obtained directly from the observed plasma concentration–time data.

[3] = test system: drug transporters, pumps, transfer proteins, extrusion proteins, or resistance proteins; conditions: cited from earlier work
[4] = Safety and tolerability in the phase 1 trial (adverse event reports, laboratory tests, ECG, vital signs); assay type: in vivo, human; conditions: for participants reporting AEs considered drug-related: of 12 participants; for tolerability: adults without HIV, N = 12
Protocol: as §1
Safety and tolerability were monitored by repeated clinical and laboratory evaluations for the duration of the trial. Safety evaluations included adverse event (AE) reports, laboratory tests, 12‐lead electrocardiograms, and vital signs.
Incidence of adverse experiences was descriptively summarized.

CYP2B6 = test system: CYP2B6; parameters: method as in PMID 34452431; conditions: at concentrations up to 100 μM; cited from earlier work
[5] = parameters: method as in PMID 34452431; conditions: cited from earlier work
CYP1A2 = test system: CYP1A2; parameters: method as in PMID 34452431; conditions: at concentrations up to 100 μM; cited from earlier work
CYP2C9 = test system: CYP2C9; parameters: method as in PMID 34452431; conditions: at concentrations up to 100 μM; cited from earlier work
[6] = test system: uridine diphosphate glucuronosyltransferase 1A1; parameters: method as in PMID 34452431; conditions: at concentrations up to 100 μM; cited from earlier work
CYP2D6 = test system: CYP2D6; parameters: method as in PMID 34452431; conditions: at concentrations up to 100 μM; cited from earlier work
[7] = parameters: method as in ref 14, 15 = [14]; 14 Rudd D , Cao Y , Vaddady P , et al. Modeling‐supported islatravir dose selection for phase 3 . Poster presented at Conference on Retroviruses and Opportunistic Infections (CROI); March 8–10 , 2020 || [15]; 15 Matthews RP , Rudd JD , Levine V , et al. Multiple daily doses of MK‐8591 as low as 0.25 mg are expected to suppress HIV . Oral presentation at Conference on Retroviruses and Opportunistic Infectio; conditions: single oral doses of islatravir, adults without HIV; cited from earlier work
HIV‐1 [8] = test system: HIV‐1; parameters: method as in PMID 31911147; conditions: single oral dose as low as 0.5 mg, treatment-naive adults with HIV-1; cited from earlier work

C#C[C@]1(CO)O[C@@H](n2cnc3c(N)nc(F)nc32)C[C@@H]1O [Islatravir, 4′‐Ethynyl‐2‐fluoro‐2′‐deoxyadenosine]
duration of maintained virologic suppression (HIV‐1 [1]): up to 48 weeks
inhibitory effect on CYP2C8 (CYP2C8): no inhibitory effect
inhibitory effect on CYP2C19 (CYP2C19): no inhibitory effect
increase of islatravir AUC0‐inf on coadministration ([2]; coadministration with steady-state dolutegravir and TDF compared with islatravir administered alone): 28%
half-life ([2]; human, oral, plasma islatravir, single 20 mg islatravir on day 8 with 50 mg dolutegravir + 300 mg TDF once daily, period 2, N = 12, read-out: Apparent terminal t1/2, geometric mean (geometric CV %) (converted)): 2.33 days
AUC ([2]; human, plasma, oral, plasma islatravir, single 20 mg islatravir on day 8 with 50 mg dolutegravir + 300 mg TDF once daily days 1-11, period 2, N = 12, read-out: AUC0‐inf, AM (SD)): 2.53 µM·h
AUC ([2]; human, plasma, oral, plasma islatravir, single 20 mg islatravir on day 8 with 50 mg dolutegravir + 300 mg TDF once daily days 1-11, period 2, N = 12, read-out: AUC0‐inf, GM (95%CI)): 2.51 µM·h
Cmax ([2]; human, plasma, oral, plasma islatravir, single 20 mg islatravir on day 8 with 50 mg dolutegravir + 300 mg TDF once daily days 1-11, period 2, N = 12, read-out: Cmax, AM (SD)): 522 nM
Cmax ([2]; human, plasma, oral, plasma islatravir, single 20 mg islatravir on day 8 with 50 mg dolutegravir + 300 mg TDF once daily days 1-11, period 2, N = 12, read-out: Cmax, GM (95%CI)): 510 nM
half-life ([2]; human, plasma, oral, plasma islatravir, single 20 mg islatravir on day 8 with 50 mg dolutegravir + 300 mg TDF once daily, period 2, N = 12, read-out: Apparent terminal t1/2, AM (SD) (converted)): 2.34 days
AUC ([2]; human, plasma, po, 20 mg, plasma islatravir, islatravir alone, single oral 20 mg, day 1 period 1, N = 12, read-out: AUC0‐inf, AM (SD)): 2 µM·h
AUC ([2]; human, plasma, po, 20 mg, plasma islatravir, islatravir alone, single oral 20 mg, day 1 period 1, N = 12, read-out: AUC0‐inf, GM (95%CI)): 1.97 µM·h
half-life ([2]; human, plasma, po, 20 mg, plasma islatravir, islatravir alone, single oral 20 mg, day 1 period 1, N = 12, read-out: Apparent terminal t1/2, AM (SD) (converted)): 2.38 days
half-life ([2]; human, plasma, po, 20 mg, plasma islatravir, islatravir alone, single oral 20 mg, day 1 period 1, N = 12, read-out: Apparent terminal t1/2, geometric mean (geometric CV %) (converted)): 2.36 days
Cmax ([2]; human, plasma, po, 20 mg, plasma islatravir, islatravir alone, single oral 20 mg, day 1 period 1, N = 12, read-out: Cmax, AM (SD)): 495 nM
Cmax ([2]; human, plasma, po, 20 mg, plasma islatravir, islatravir alone, single oral 20 mg, day 1 period 1, N = 12, read-out: Cmax, GM (95%CI)): 479 nM
Tmax ([2]; human, plasma, po, 20 mg, plasma islatravir, islatravir alone, single oral 20 mg, day 1 period 1, N = 12, read-out: tmax, median (min‐max)): 45 min
tmax, median (min‐max) ([2]; plasma islatravir, single 20 mg islatravir on day 8 with 50 mg dolutegravir + 300 mg TDF once daily, period 2, N = 12): 1.00 (0.50‐2.01) h
interference with drug transporters, pumps, transfer proteins, extrusion proteins, or resistance proteins [3]: not found to interfere
participants reporting AEs considered drug-related ([4]; after administration of islatravir): 3 participants
participants reporting AEs considered drug-related ([4]; after coadministration of all 3 therapies (islatravir, dolutegravir, TDF)): 1 participant
tolerability ([4]; islatravir alone, single oral 20 mg): generally well tolerated
tolerability ([4]; islatravir in combination with dolutegravir and TDF): generally well tolerated
inhibitory effect on CYP2B6 (CYP2B6): no inhibitory effect
plasma protein binding [5]: low
inhibitory effect on CYP1A2 (CYP1A2): no inhibitory effect
inhibitory effect on CYP2C9 (CYP2C9): no inhibitory effect
inhibitory effects on uridine diphosphate glucuronosyltransferase 1A1 [6]: No inhibitory effects
inhibitory effect on CYP2D6 (CYP2D6): no inhibitory effect
time to peak plasma concentrations [7]: ≈ 0.5 hours
duration of effective viral suppression (HIV‐1 [8]): up to 7 days

From publication PMC9298070, “Lack of a Clinically Meaningful Drug Interaction Between the HIV‐1 Antiretroviral Agents Islatravir, Dolutegravir, and Tenofovir Disoproxil Fumarate” (Clinical Pharmacology in Drug Development, 2021)
